Experimental data as given in patent publication US12497666B2, “Nucleic acid biomarker and use thereof” (Daiichi Sankyo Co., Ltd., priority 2013, dated 2025).
Like-named read-outs stand apart in the source and are kept apart here.

System: Stage IIIb/IV NSCLC
Procedure: In both portions of the study, subjects received 150 mg of erlotinib orally once daily. […] Tumors were to be assessed every 6 weeks (±3 days) up to the first 24 weeks of the study, then every 12 weeks (+7 days) independent of treatment cycle.
All efficacy analyses were performed on the full analysis set, which includes all subjects in the randomized analysis set who received at least one dose of randomized study medication. The primary efficacy endpoint was PFS. PFS is defined as the time from the date of randomization to the earlier of the dates of the first objective documentation of radiographic disease progression or death due to any cause. A subject who was alive with no Objective documentation of (radiographic) disease progression by the data cut-off date was to be censored at the date of the last evaluable tumor assessment. The key secondary efficacy endpoint, overall survival, was defined as the time from the date of randomization to death due to any cause and was analyzed in the same manner as the primary efficacy endpoint PFS.
Kaplan-Meier curves were generated for PFS and used to calculate medians and 95% CIs for each treatment group. […] Cox's proportional hazards model.
The stratification factors included histology (Adenocarcinoma vs Non-Adenocarcinoma) and best response to prior therapy (CR/PR/SD vs PD).
Unless otherwise indicated, log-rank p-values and HRs for PFS and OS were based on the primary analysis adjusted for the stratification factors at randomization as described above.

[1] = Enrolled/Randomized set, placebo + erlotinib
[2] = Full Analysis Set, Kaplan-Meier, placebo + erlotinib
[3] = Full Analysis Set, placebo + erlotinib
[4] = HRG high (dCt<3.9), placebo + erlotinib
[5] = HRG high and EGFR wild type, placebo + erlotinib

## erlotinib [Placebo + erlotinib, reference compound]
[1]
  On-Study Death: 13 (18.3%) subjects (%)
  Primary Cause of On-Study Death: Adverse Event: 5 (7.0%) subjects (%)
  Primary Cause of On-Study Death: Disease Progression: 8 (11.3%) subjects (%)
  Primary Reason for Discontinuing Study Treatment: Death: 4 (5.6%) subjects (%)
  Primary Reason for Discontinuing Study Treatment: Progressive Disease (Radiographic Progression): 50 (70.4%) subjects (%)
[2]
  Overall Survival, time to event, Median: 7.2 months
  Progression-Free Survival, time to event, Median: 1.6 months
[3]
  Subjects (%) with events, OS: 48 (67.6%) subjects (%)
  Subjects (%) with events, PFS: 59 (83.1%) subjects (%)
  number of subjects with the response being CP/PR: 4 (5.6%) subjects (%)
[4]
  OS Rate at 1 Year (%): 32.4%
  OS Rate at 6 Months (%): 49.4%
  OS Rate at 9 Months (%): 49.4%
  PFS Rate at 8 Weeks (%): 31.3%
  PFS Rate at 14 Weeks (%): 18.8%
  PFS Rate at 26 Weeks (%): 0.0%
  Progression-Free Survival, time to event, Median: 1.4 months
  Subjects (%) with events, OS: 11 (61.1%) subjects (%)
  Subjects (%) with events, PFS: 16 (88.9%) subjects (%)
HRG high (dCt<3.9), preliminary, placebo + erlotinib
  Overall Survival, time to event, Median: 5.0 months
[5]
  Progression-Free Survival, time to event, Median: 1.4 months
  Subjects (%) with events, PFS: 8 ( 88.9%) subjects (%)
HRG high, placebo + erlotinib
  objective response (CR or PR): 1 (5.6%) subjects (%)
HRG high, placebo plus erlotinib
  disease control rate: 22.2%
HRG low, placebo + erlotinib
  Overall Survival, time to event, Median: 8.0 months
  Progression-Free Survival, time to event, Median: 1.4 months
  Subjects (%) with events, OS: 11 (68.8%) subjects (%)
  Subjects (%) with events, PFS: 13 ( 81.3%) subjects (%)
